Results: patent publication US20240308987A1, “SMALL MOLECULE INHIBITOR AGAINST NASOPHARYNGEAL CARCINOMA, PREPARATION METHOD AND APPLICATION THEREOF” (SHENZHEN BAY LABORATORY, priority 2021, published 2024)

Tested on: C666-1 cells
Experiment: C666-1 Cell Viability Assay (Resazurin cytotoxicity test)
Type: cell-based
Conditions: Homo sapiens, C6661, EB virus-positive C666-1 cells, 72 hours treatment, 100-0.78 micromole/L, read-out: Inhibitory Rate
Method: In order to evaluate the inhibitory effect of the small molecular compound of the present disclosure on EBNA1 at the cellular level, a cytotoxicity test was performed.
As mentioned in the Background of the present disclosure, nasopharyngeal carcinoma is a kind of disease highly associated with latent infection of EB virus. EB virus in latent state only expresses limited proteins to maintain its genome replication, among which EBNA1 protein is an essential functional protein. Studies have confirmed that inhibition of EBNA1 can reduce the proliferation of the corresponding nasopharyngeal carcinoma cells or kill them. Therefore, EB virus-positive nasopharyngeal carcinoma tumor cells (C666-1 cells) are selected for test to verify the effect of the small molecular compound of the present disclosure.
During testing, 100 microliters of different cell lines were inoculated onto a transparent 96-well plate, and 5×10^3 cells were inoculated in each well for C666-1 cells. After the cells were cultured in an incubator under […] at 37° C. for 24 hours, 10 microliters of compound with a concentration ranging from 1 mmol/L to 7.8 micromol/L were added to each well (8 points, double dilution, the final concentration was 100-0.78 micromole/L), and treated in the incubator under carbon dioxide at 37° C. for 72 hours. Cell viability was assessed using the redox indicator Resazurin. After addition of 10 microliters of 600 micromole/liter Resazurin to each well and incubation at 37° C. for 3 hours. Using a Tecan microplate reader, the fluorescence signals were detected at an […]. A software was used to fit the inhibition curve and calculate half-maximal effect concentration (EC50). The selectivity of compound activity was assessed by comparing the EC50 values of EB virus-positive and EB virus-negative cell lines.

Row | Compound | EC50 [µM]
1 | c1cncc(OCc2ccc(OC3CN(c4ccccc4-n4cccc4)C3)cc2)c1 [Example 1g, 3-((4-((1-(2-(1H-pyrrole-1-yl)phenyl)azetidin-3-yl)oxy)benzyl)oxy) pyridine] | 10 to 50
2 | COC(=O)c1cccc(N2CC(Oc3ccc(NC(=O)Nc4cccnc4)cc3)C2)c1-n1cccc1 [Example 34, methyl 3-(3-(4-(3-(pyridin-3-yl)ureido)phenoxy)azetidin-1-yl)-2-(1H-pyrrol-1-yl) benzoate] | < 1
3 | Cc1cncc(NC(=O)Nc2ccc(OC3CN(c4cccc(C(=O)O)c4-n4cccc4)C3)cc2)c1 [Example 47a, 3-(3-(4-(3-(5-methylpyridin-3-yl)ureido)phenoxy)azetidin-1-yl)-2-(1H-pyrrol-1-yl) benzoic acid] | < 1
4 | COC(=O)c1cccc(N2CC(Oc3ccc(NC(=O)Cc4cccnc4)cc3)C2)c1-c1cccc(Cl)c1 [Example 48, methyl 3′-chloro-6-(3-(4-(2-(pyridin-3-yl)acetamido)phenoxy)azetidin-1-yl)-[1,1′-biphenyl]-2-carboxylate] | < 1
5 | O=C(Cc1cccnc1)Nc1ccc(OC2CN(c3ccccc3-c3ccccc3)C2)cc1 [Example 45e, N-(4-((1-([1,1′-biphenyl]-2-yl)azetidin-3-yl)oxy)phenyl)-2-(pyridin-3-yl)acetamide] | 10 to 50
6 | COC(=O)c1cccc(C#Cc2ccc(CC(=O)Nc3cccnc3)cc2)c1-c1ccccc1 [Example 60, methyl 6-((4-(2-oxo-2-(pyridin-3-ylamino)ethyl)phenyl)ethynyl)-[1,1′-biphenyl]-2-carboxylate] | < 1
7 | O=C(Nc1ccc(OC2CN(c3cccc(C(=O)NO)c3-n3cccc3)C2)cc1)c1cccnc1 [Example 31b, N-(4-((1-(3-(hydroxycarbamoyl)-2-(1H-pyrrol-1-yl)phenyl)azetidin-3-yl)oxy)phenyl) nicotinamide] | < 1
8 | COC(=O)c1cccc(C#Cc2ccc(NC(=O)Nc3cccnc3)cc2)c1-c1cccc(OCCO)c1 [Example 57, methyl 3′-(2-hydroxyethoxy)-6-((4-(3-(pyridin-3-yl)ureido)phenyl)ethynyl)-[1,1′-biphenyl]-2-carboxylate] | 1 to 10
9 | COC(=O)c1cccc(N2CC(Oc3ccc(Oc4cccnc4)cc3)C2)c1-n1cccc1 [Example 25, methyl 3-(3-(4-(pyridin-3-yloxy)phenoxy)azetidin-1-yl)-2-(1H-pyrrol-1-yl) benzoate] | > 50
10 | COC(=O)c1cccc(N2CC(Oc3ccc(COc4ccccn4)cc3)C2)c1-n1cccc1 [Example 12, methyl 3-(3-(4-((pyridin-2-yloxy)methyl)phenoxy)azetidin-1-yl)-2-(1H-pyrrol-1-yl) benzoate] | > 50
11 | COC(=O)c1cccc(N2CC(Oc3ccc(COc4cccnc4)cc3C)C2)c1-n1cccc1 [Example 16, methyl 3-(3-(2-methyl-4-((pyridin-3-yloxy)methyl)phenoxy)azetidin-1-yl)-2-(1H-pyrrol-1-yl) benzoate] | 10 to 50
12 | O=C(Cc1cccnc1)Nc1ccc(OC2CN(c3cccc(C(=O)O)c3)C2)cc1 [Example 49a, 3-(3-(4-(2-(pyridin-3-yl)acetamido)phenoxy)azetidin-1-yl) benzoic acid] | 10 to 50
13 | COC(=O)c1cccc(N2CC(Oc3ccc(NC(=O)Cc4cccnc4)cc3)C2)c1 [Example 49, methyl 3-(3-(4-(2-(pyridin-3-yl)acetamido)phenoxy)azetidin-1-yl) benzoate] | 1 to 10
14 | COc1ccc(OCc2ccc(OC3CN(c4cccc(C(=O)O)c4-n4cccc4)C3)cc2)cn1 [Example 4a, 3-(3-(4-(((6-methoxypyridin-3-yl)oxy)methyl)phenoxy)azetidin-1-yl)-2-(1H-pyrrol-1-yl) benzoic acid] | > 50
15 | COC(=O)c1cccc(N2CC(Oc3cccc(COc4cccnc4)c3)C2)c1-n1cccc1 [Example 21, methyl 3-(3-(3-((pyridin-3-yloxy)methyl)phenoxy)azetidin-1-yl)-2-(1H-pyrrol-1-yl) benzoate] | 10 to 50
16 | COC(=O)c1cccc(N2CC(Oc3ccc(NC(=O)Nc4cccc(C(F)(F)F)c4)cc3)C2)c1-n1cccc1 [Example 10, methyl 2-(1H-pyrrol-1-yl)-3-(3-(4-(3-(3-(trifluoromethyl)phenyl)ureido)phenoxy)azetidin-1-yl) benzoate] | 10 to 50
17 | O=C(Nc1ccc(C#Cc2cccc(C(=O)O)c2-c2ccc3cc[nH]c3c2)cc1)Nc1cccnc1 [Example 59a, 2-(1H-indol-6-yl)-3-((4-(3-(pyridin-3-yl)ureido)phenyl)ethynyl) benzoic acid] | < 1

Row | Compound | EC50 [µM]
18 | COC(=O)c1cccc(N2CC(Oc3ccc(COc4cccnc4)cc3)C2)c1-n1cccc1 [Example 1, methyl 3-(3-(4-((pyridin-3-yloxy)methyl)phenoxy)azetidin-1-yl)-2-(1H-pyrrol-1-yl) benzoate] | 1 to 10
19 | O=C(O)c1cccc(N2CC(Oc3ccc(CNc4cccnc4)cc3)C2)c1-c1cccc(Cl)c1 [Example 38a, 3′-chloro-6-(3-(4-((pyridin-3-ylamino)methyl)phenoxy)azetidin-1-yl)-[1,1′-biphenyl]-2-carboxylic acid] | 10 to 50
20 | O=C(O)c1cccc(N2CC(Oc3ccc(COc4cccnc4)c(F)c3)C2)c1-n1cccc1 [Example 20a, 3-(3-(3-fluoro-4-((pyridin-3-yloxy)methyl)phenoxy)azetidin-1-yl)-2-(1H-pyrrol-1-yl) benzoic acid] | 10 to 50
21 | O=C(O)c1cccc(N2CC(Oc3ccc(COc4cccs4)cc3)C2)c1-n1cccc1 [Example 30a, 2-(1H-pyrrol-1-yl)-3-(3-(4-((thiophen-2-yloxy)methyl)phenoxy)azetidin-1-yl) benzoic acid] | > 50
22 | COC(=O)c1cccc(N2CC(Oc3ccc(CNc4cccnc4)cc3)C2)c1-c1ccccc1 [Example 39, methyl 6-(3-(4-((pyridin-3-ylamino)methyl)phenoxy)azetidin-1-yl)-[1,1′-biphenyl]-2-carboxylate] | > 50
23 | COC(=O)c1cccc(N2CC(Oc3ccc(COc4cncnc4)cc3)C2)c1-n1cccc1 [Example 14, methyl 3-(3-(4-((pyrimidin-5-yloxy)methyl)phenoxy)azetidin-1-yl)-2-(1H-pyrrol-1-yl) benzoate] | 1 to 10
24 | O=C(O)c1cccc(N2CC(Oc3ccc(Cn4ccnc4)cc3)C2)c1-n1cccc1 [Example 56a, 3-(3-(4-((1H-imidazol-1-yl)methyl)phenoxy)azetidin-1-yl)-2-(1H-pyrrol-1-yl) benzoic acid] | 10 to 50
25 | O=C(Nc1ccc(C#Cc2cccc(C(=O)NO)c2-c2ccccc2)cc1)Nc1cccnc1 [Example 58b, N-hydroxy-6-((4-(3-(pyridin-3-yl)ureido)phenyl)ethynyl)-[1,1′-biphenyl]-2-carboxamide] | < 1
26 | O=C(Cc1cccnc1)Nc1ccc(OC2CN(c3cccc(C(=O)O)c3Cl)C2)cc1 [Example 55a, 2-chloro-3-(3-(4-(2-(pyridin-3-yl)acetamido)phenoxy)azetidin-1-yl) benzoic acid] | 10 to 50
27 | O=C(Nc1ccc(OC2CN(c3cccc(C(=O)O)c3-n3cccc3)C2)cc1)c1cccnc1 [Example 31a, 3-(3-(4-(nicotinoamido)phenoxy)azetidin-1-yl)-2-(1H-pyrrol-1-yl) benzoic acid] | 10 to 50
28 | COC(=O)c1cccc(N2CC(Oc3ccc(NC(=O)Nc4cccc(C(F)(F)F)c4)cc3)C2)c1-c1cccc(Cl)c1 [Example 37, methyl 3′-chloro-6-(3-(4-(3-(3-(trifluoromethyl)phenyl)ureido)phenoxy)azetidin-1-yl)-[1,1′-biphenyl]-2-carboxylate] | 10 to 50
29 | O=C(NO)c1cccc(N2CC(Oc3ccc(COc4cncnc4)cc3)C2)c1-n1cccc1 [Example 14b, N-hydroxy-3-(3-(4-((pyrimidin-5-yloxy)methyl)phenoxy)azetidin-1-yl)-2-(1H-pyrrol-1-yl) benzamide] | 1 to 10
30 | O=C(O)c1cccc(N2CC(Oc3ccc(Oc4ccncc4)cc3)C2)c1-n1cccc1 [Example 26a, 3-(3-(4-(pyridin-4-yloxy)phenoxy)azetidin-1 - yl)-2-(1H-pyrrol-1-yl) benzoic acid] | 10 to 50
31 | O=C(Nc1ccc(OC2CN(c3cccc(C(=O)NO)c3-c3ccccc3)C2)cc1)Nc1cccnc1 [Example 42b, N-hydroxy-6-(3-(4-(3-(pyridin-3-yl)ureido)phenoxy)azetidin-1-yl)-[1,1′-biphenyl]-2-carboxamide] | < 1
32 | O=C(Nc1ccc(OC2CN(c3cccc(C(=O)O)c3-n3cccc3)C2)cc1)Nc1cccnc1 [Example 34a, 3-(3-(4-(3-(pyridin-3-yl)ureido)phenoxy)azetidin-1-yl)-2-(1H-pyrrol-1-yl) benzoic acid] | 1 to 10
33 | COC(=O)c1cccc(N2CC(Oc3ccc(COc4cnccc4C)cc3)C2)c1-n1cccc1 [Example 2, methyl 3-(3-(4-((4-methylpyridin-3-yloxy)methyl)phenoxy)azetidin-1-yl)-2-(1H-pyrrol-1-yl) benzoate] | > 50
34 | O=C(Cc1cccnc1)Nc1ccc(OC2CN(c3cccc(C(=O)O)c3-c3ccccc3)C2)cc1 [Example 45a, 6-(3-(4-(2-(pyridin-3-yl)acetamido)phenoxy)azetidin-1-yl)-[1,1′-biphenyl]-2-carboxylic acid] | 10 to 50
